# Test results: US5153227A, “Phenylsulfonyl nitromethanes as aldose reductase inhibitors” (Imperial Chemical Industries PLC, priority 1987, dated 1992)
# Target: T1, aldose reductase (Bos taurus, UniProt P16116)
# T1 construct: partially purified aldose reductase is isolated in known manner from bovine lenses; from tissue; host or cells: bovine lenses
# Experiment: in vitro inhibition of partially purified aldose reductase isolated from bovine lenses (reduction of glucose to sorbitol, spectrophotometric)
# Type: biochemical
# Conditions: in vitro test, bovine lens aldose reductase
# Protocol: Thus, partially purified aldose reductase is isolated in known manner from bovine lenses. The percentage inhibition of this enzyme's ability in vitro to catalyse the reduction of aldoses to polyhydric alcohols, and particularly to reduce glucose to sorbitol, caused by a test compound is then determined using standard spectrophotometric methods.
compound,measurement,value
"O=[N+]([O-])CS(=O)(=O)c1cccc2ccccc12 [Example 1, (1-naphthylsulphonyl)nitromethane]",IC50,320 nM
